# Measurements taken from PubChem BioAssay (NCI).
#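 Growth conditions: 96-well plates. Treatment: test compound, 48 hours, 5 concentrations. Analysis: linear interpolation between bracketing concentrations; unreached endpoints set to highest concentration. GI50 marks 50% less growth. The concentration for full growth arrest is given as TGI.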
# Assays:
# Experiment in all cases: NCI anticancer screen, dose series, 48 h
# [1] = tested on: KM12 colon
# [2] = tested on: UO-31 renal
# [3] = tested on: A549 NSCLC
# [4] = tested on: NCI-H23 lung
# [5] = tested on: M14 melanoma
# [6] = tested on: A498 renal
# [7] = tested on: NCI-H522 lung
# [8] = tested on: OVCAR-8 ovarian
Compound,GI50 [1],TGI [1],GI50 [2],TGI [2],GI50 [3],TGI [3],GI50 [4],TGI [4],GI50 [5],TGI [5],GI50 [6],TGI [6],GI50 [7],TGI [7],GI50 [8],TGI [8]
Cn1nccc1Nc1nccc(-c2ccn([C@H](CO)c3ccc(Cl)c(F)c3)c(=O)c2)n1,18.8 µM,> 100 µM,24.7 µM,> 100 µM,36 µM,> 100 µM,4.47 µM,> 100 µM,87.1 nM,> 72.2 µM,1070 nM,15.3 µM,13100 nM,> 51.9 µM,6.56 µM,> 100 µM
O=C1C=C[C@H](O)[C@@]2(CO)O[C@@H]12,12.1 µM,24.5 µM,10.4 µM,24 µM,23.7 µM,> 60.1 µM,15.8 µM,31.3 µM,15200 nM,29 µM,18400 nM,45.4 µM,1810 nM,3.79 µM,13.2 µM,31.9 µM
CCN(CC)Cc1cc(Nc2nc(NC3CCC(N(C)C)CC3)c3ccccc3n2)ccc1OC (stereo not drawn),3.35 µM,13.2 µM,12.2 µM,27.2 µM,3.59 µM,13.7 µM,6.9 µM,21.9 µM,1910 nM,3.57 µM,12500 nM,25.2 µM,2450 nM,6.96 µM,3.08 µM,13.2 µM
Nc1ncc(Cc2ccc3c(c2)OCO3)c(N)n1,,> 100 µM,,> 100 µM,,> 100 µM,,> 100 µM,,> 100 µM,,> 100 µM,,,,> 100 µM
COc1ccc2c(c1)c(-c1nc(-c3c[nH]c4ncccc34)cs1)cn2CCCN1CCOCC1,2.41 µM,6.88 µM,1.37 µM,3.67 µM,4.04 µM,13.1 µM,2.68 µM,8.75 µM,1770 nM,3.58 µM,481 nM,2.04 µM,2070 nM,6.03 µM,,
CCCCCCCCCCCC[N+]1(CCCCCCCCCCCC)CCCC(C)C1 (stereo not drawn),,,,,0.172 µM,0.736 µM,0.113 µM,0.399 µM,,,1260 nM,2.52 µM,,,,
O=C(Nc1ccc(N=C=S)cc1Cl)c1cc(Br)cc(Br)c1O,,55.3 µM,,> 100 µM,,69.7 µM,,55.2 µM,,> 100 µM,,,,> 100 µM,,46.6 µM
COc1ccc2sc3c(NCCCN)nc4ccccc4c3c(=O)c2c1,1.82 µM,3.36 µM,1.43 µM,2.82 µM,1.64 µM,3.39 µM,1.76 µM,3.43 µM,1740 nM,3.18 µM,1520 nM,5.59 µM,1630 nM,3.49 µM,,
O=[N+]([O-])c1ccc(Cl)c2c([N+](=O)[O-])cccc12,,> 10 µM,,,,> 10 µM,,> 10 µM,,,,,,,,> 10 µM
COc1ccc(OC)c(/C=C/c2nc(=S)n(-c3ccc(Cl)cc3)[nH]2)c1,4.03 µM,> 100 µM,,,9.07 µM,> 100 µM,5.88 µM,> 100 µM,4240 nM,> 100 µM,6660 nM,> 100 µM,4070 nM,> 100 µM,28.4 µM,> 100 µM
O=C1CC(c2ccccc2)Oc2ccccc21 (stereo not drawn),,> 100 µM,,> 100 µM,,,,45.5 µM,,> 100 µM,,94 µM,,,,> 100 µM
c1ccc2c(c1)SCCCS2,,> 100 µM,,> 100 µM,,> 100 µM,,> 100 µM,,> 100 µM,,,,> 100 µM,,> 100 µM
CSC1=Nc2c(c(C)c(C)n2COC(CO)CO)C2=NC(=O)CN12,> 100 µM,> 100 µM,> 100 µM,> 100 µM,> 100 µM,> 100 µM,> 100 µM,> 100 µM,,,> 100000 nM,> 100 µM,> 100000 nM,> 100 µM,> 100 µM,> 100 µM
O=C(NCCNCCO)c1ccc2c(c1)oc1cc3ccccc3c(=O)n12,9.32 µM,> 50 µM,16.6 µM,> 50 µM,16.2 µM,> 50 µM,22.5 µM,> 50 µM,> 50000 nM,> 50 µM,,,18200 nM,> 50 µM,15.7 µM,> 50 µM
COC(=O)OC1C(O[C@H]2C[C@H]3[C@@H]4CC=C5C[C@@H](O)CC[C@]5(C)[C@H]4CC[C@]3(C)[C@H]2[C@H](C)C(=O)CCC(C)C)OCC(O)C1OC1OCC(O)C(O)C1OC(=O)c1ccc(OC)cc1 (stereo partly drawn),0.039 µM,9.86 µM,0.017 µM,0.0898 µM,0.0125 µM,5.24 µM,0.138 µM,5.94 µM,,,< 2.75 nM,0.0108 µM,14.6 nM,0.183 µM,3.17 µM,> 27.5 µM
N#Cc1nc2c(S(=O)(=O)c3ccc(Cl)cc3)c(N)n(Nc3cccc(Cl)c3)c2nc1C#N,,,0.333 µM,> 100 µM,,> 100 µM,0.0324 µM,,67.1 nM,0.304 µM,,,110 nM,0.449 µM,,> 100 µM
